The source made the active and inactive calls. The calls are words filed in the database; no cut-off is given here.
Experiments:
[1] = molecular target: T1, Serine/threonine-protein kinase 17A (Homo sapiens, UniProt Q9UEE5); experiment: Inhibition of human N-terminal His-tagged/ TEV cleavage fused DRAK1 (39 to 369 residues) transfected in HEK293T cells using NanoBRET NanoGlo as substrate incubated for 2 hrs by NanoBRET assay; type: cell-based
T1 sequence (Q9UEE5 whole entry): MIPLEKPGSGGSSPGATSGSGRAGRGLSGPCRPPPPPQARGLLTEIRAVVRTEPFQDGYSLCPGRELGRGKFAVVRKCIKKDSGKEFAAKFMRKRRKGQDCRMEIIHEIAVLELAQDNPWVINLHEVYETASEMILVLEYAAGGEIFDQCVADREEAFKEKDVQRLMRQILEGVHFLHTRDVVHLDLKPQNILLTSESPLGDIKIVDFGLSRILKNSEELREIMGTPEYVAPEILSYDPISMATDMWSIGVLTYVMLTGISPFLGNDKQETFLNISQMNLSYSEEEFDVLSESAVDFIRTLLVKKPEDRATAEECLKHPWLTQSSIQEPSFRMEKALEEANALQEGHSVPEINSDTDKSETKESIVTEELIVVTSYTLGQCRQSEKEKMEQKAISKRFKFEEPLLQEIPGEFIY

[2] = molecular target: T2, Casein kinase II subunit alpha (Homo sapiens, UniProt P68400); experiment: Binding affinity to wild type full length human CK2alpha1 (1 to 391 residues) expressed in mammalian expression system assessed as change in melting temperature at 10 uM by SYPRO orange dye based DSF assay
Target sequence in this assay (P68400 whole entry, looked up, the tested form may be a part): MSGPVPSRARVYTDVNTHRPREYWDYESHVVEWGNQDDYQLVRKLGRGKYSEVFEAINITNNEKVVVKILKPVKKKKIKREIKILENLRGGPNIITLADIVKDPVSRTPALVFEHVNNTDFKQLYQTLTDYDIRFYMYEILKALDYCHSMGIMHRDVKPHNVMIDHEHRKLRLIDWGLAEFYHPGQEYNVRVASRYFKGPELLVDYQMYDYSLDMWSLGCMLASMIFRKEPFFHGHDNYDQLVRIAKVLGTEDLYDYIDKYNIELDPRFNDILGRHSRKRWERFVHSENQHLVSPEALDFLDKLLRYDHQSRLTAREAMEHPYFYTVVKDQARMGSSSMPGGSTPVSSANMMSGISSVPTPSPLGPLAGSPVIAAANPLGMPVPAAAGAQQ

[3] = molecular target: T1, Serine/threonine-protein kinase 17A; experiment: Inhibition of human N-terminal His-tagged/ TEV cleavage fused DRAK1 (39 to 369 residues) expressed in Escherichia coli using KKLNRTLSFAEPG peptide as substrate in presence of [gamma-33P]ATP by radiometric based scintillation proximity assay
[4] = molecular target: T3, Serine/threonine-protein kinase 17A (Homo sapiens) (UniProt Q9UEE5); experiment: Binding affinity to human N-terminal His-tagged/ TEV cleavage fused DRAK1 (39 to 369 residues) expressed in Escherichia coli assessed as change in melting temperature at 10 uM by SYPRO orange dye based DSF assay
T3 sequence (whole entry): T1 sequence (Q9UEE5 whole entry)

[5] = Binding affinity to wild type full length human CK2alpha2 (1 to 350 residues) expressed in mammalian expression system assessed as change in melting temperature by SYPRO orange dye based DSF assay
[6] = molecular target: T3, Serine/threonine-protein kinase 17A (Homo sapiens); experiment: Inhibition of human N-terminal His-tagged/ TEV cleavage fused DRAK1 (39 to 369 residues) expressed in Escherichia coli assessed as change in enthalpy by isothermal titration calorimetry
[7] = Inhibition of CK2alpha2 (unknown origin) transfected in HEK293T cells using NanoBRET NanoGlo as substrate incubated for 2 hrs by NanoBRET assay; type: cell-based; conditions: Homo sapiens, HEK-293T
[8] = molecular target: T4, Serine/threonine-protein kinase 17B (Homo sapiens, UniProt O94768); experiment: Inhibition of DRAK2 (unknown origin) transfected in HEK293T cells using NanoBRET NanoGlo as substrate incubated for 2 hrs by NanoBRET assay; type: cell-based
T4 sequence (O94768 whole entry): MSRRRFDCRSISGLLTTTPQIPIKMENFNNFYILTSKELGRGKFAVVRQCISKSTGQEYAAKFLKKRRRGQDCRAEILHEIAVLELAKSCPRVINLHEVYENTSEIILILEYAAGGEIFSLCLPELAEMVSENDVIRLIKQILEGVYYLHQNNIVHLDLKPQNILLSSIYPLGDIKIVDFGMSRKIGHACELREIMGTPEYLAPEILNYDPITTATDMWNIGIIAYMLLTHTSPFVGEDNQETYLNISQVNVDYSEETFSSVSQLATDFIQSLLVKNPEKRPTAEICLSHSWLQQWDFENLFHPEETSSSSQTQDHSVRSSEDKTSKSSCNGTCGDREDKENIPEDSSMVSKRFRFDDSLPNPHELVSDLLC

[9] = molecular target: T5, BMP-2-inducible protein kinase (Homo sapiens, UniProt Q9NSY1); experiment: Inhibition of BIKE (unknown origin) transfected in HEK293T cells using NanoBRET NanoGlo as substrate incubated for 2 hrs by NanoBRET assay; type: cell-based
Target sequence in this assay (Q9NSY1 whole entry): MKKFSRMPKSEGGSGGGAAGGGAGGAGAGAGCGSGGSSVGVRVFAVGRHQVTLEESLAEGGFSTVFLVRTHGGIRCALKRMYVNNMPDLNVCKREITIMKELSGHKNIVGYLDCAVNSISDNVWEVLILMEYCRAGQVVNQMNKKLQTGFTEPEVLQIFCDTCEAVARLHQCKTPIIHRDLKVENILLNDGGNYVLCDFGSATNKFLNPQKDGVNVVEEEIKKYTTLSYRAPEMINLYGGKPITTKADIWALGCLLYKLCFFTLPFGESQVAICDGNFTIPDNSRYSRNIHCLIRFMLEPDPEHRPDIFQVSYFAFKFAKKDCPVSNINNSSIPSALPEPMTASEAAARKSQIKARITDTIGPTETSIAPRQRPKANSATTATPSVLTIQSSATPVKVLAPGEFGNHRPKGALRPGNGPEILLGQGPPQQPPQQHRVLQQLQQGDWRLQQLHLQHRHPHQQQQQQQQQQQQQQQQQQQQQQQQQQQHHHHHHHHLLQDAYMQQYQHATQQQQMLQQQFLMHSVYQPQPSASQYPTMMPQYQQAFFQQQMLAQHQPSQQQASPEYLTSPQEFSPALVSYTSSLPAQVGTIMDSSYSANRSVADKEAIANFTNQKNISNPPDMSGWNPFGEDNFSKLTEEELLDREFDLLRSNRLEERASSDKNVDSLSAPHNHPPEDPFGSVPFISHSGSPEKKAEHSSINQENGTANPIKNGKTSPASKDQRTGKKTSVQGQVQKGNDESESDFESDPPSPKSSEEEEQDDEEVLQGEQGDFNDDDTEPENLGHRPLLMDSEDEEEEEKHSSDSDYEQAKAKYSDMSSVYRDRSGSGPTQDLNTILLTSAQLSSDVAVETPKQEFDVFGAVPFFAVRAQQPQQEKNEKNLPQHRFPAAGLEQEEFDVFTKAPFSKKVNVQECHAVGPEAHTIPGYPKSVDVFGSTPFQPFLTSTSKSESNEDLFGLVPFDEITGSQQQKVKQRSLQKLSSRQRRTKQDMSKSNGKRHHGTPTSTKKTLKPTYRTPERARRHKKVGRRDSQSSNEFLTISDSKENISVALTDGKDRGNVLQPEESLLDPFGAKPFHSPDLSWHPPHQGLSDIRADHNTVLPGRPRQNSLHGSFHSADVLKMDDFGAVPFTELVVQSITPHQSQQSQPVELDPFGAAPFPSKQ

HEK-293T [10] = experiment: Cytotoxicity against human HEK293T cells at 1 uM incubated for 18 hrs; type: toxicity, cell-based
[11] = Cytotoxicity against human MRC9 cells at 1 uM incubated for 36 hrs; type: toxicity, cell-based; conditions: mrc9, 36 h
HEK-293T [12] = experiment: Cytotoxicity against human HEK293T cells assessed as increase in total apoptotic cells at 10 uM incubated for 18 hrs by Annexin V staining based method; type: toxicity, cell-based
[13] = Induction of morphological changes in human MRC9 cells assessed as microtubule damage at 1 to 10 uM incubated for 18 hrs by confocal fluorescence microscopic analysis; type: toxicity, cell-based; conditions: mrc9, 18 h, dose 1-10 µM
[14] = molecular target: T5, BMP-2-inducible protein kinase; experiment: Binding affinity to BIKE (unknown origin) assessed as change in melting temperature at 10 uM by SYPRO orange dye based DSF assay
Target sequence in this assay (Q9NSY1 whole entry, looked up): as the sequence (Q9NSY1 whole entry) above

[15] = molecular target: T1, Serine/threonine-protein kinase 17A; experiment: Binding affinity to human N-terminal His-tagged/ TEV cleavage fused DRAK1 (39 to 369 residues) expressed in Escherichia coli by isothermal titration calorimetry
[16] = molecular target: T3, Serine/threonine-protein kinase 17A (Homo sapiens); experiment: Inhibition of human N-terminal His-tagged/ TEV cleavage fused DRAK1 (39 to 369 residues) expressed in Escherichia coli assessed as change in entropy by isothermal titration calorimetry
[17] = Cytotoxicity against human MRC9 cells assessed as increase in total apoptotic cells at 10 uM incubated for 36 hrs by Annexin V staining based method; type: toxicity, cell-based; conditions: mrc9, 36 h
U2OS = experiment: Cytotoxicity against human U2OS cells assessed as increase in total apoptotic cells at 10 uM incubated for 36 hrs by Annexin V staining based method; type: functional, cell-based
[18] = Cytotoxicity against human MRC9 cells assessed as increase in total apoptotic cells incubated for 36 hrs by Annexin V staining based method; type: toxicity, cell-based
[19] = Induction of morphological changes in human MRC9 cells assessed as mitochondrial damage at 1 to 10 uM incubated for 18 hrs by confocal fluorescence microscopic analysis; type: toxicity, cell-based; conditions: mrc9, 18 h, dose 1-10 µM
[20] = Inhibition of human CK2alpha2 using RRRDDDSDDD peptide as substrate in presence of [gamma-33P]ATP by radiometric based scintillation proximity assay
HEK-293T [21] = experiment: Cytotoxicity against human HEK293T cells assessed as increase in total apoptotic cells at 10 uM incubated for 36 hrs by Annexin V staining based method; type: toxicity, cell-based
[22] = molecular target: T6, Cyclin-G-associated kinase (Homo sapiens, UniProt O14976); experiment: Inhibition of GAK (unknown origin) transfected in HEK293T cells using NanoBRET NanoGlo as substrate incubated for 2 hrs by NanoBRET assay; type: cell-based
T6 sequence (O14976 whole entry): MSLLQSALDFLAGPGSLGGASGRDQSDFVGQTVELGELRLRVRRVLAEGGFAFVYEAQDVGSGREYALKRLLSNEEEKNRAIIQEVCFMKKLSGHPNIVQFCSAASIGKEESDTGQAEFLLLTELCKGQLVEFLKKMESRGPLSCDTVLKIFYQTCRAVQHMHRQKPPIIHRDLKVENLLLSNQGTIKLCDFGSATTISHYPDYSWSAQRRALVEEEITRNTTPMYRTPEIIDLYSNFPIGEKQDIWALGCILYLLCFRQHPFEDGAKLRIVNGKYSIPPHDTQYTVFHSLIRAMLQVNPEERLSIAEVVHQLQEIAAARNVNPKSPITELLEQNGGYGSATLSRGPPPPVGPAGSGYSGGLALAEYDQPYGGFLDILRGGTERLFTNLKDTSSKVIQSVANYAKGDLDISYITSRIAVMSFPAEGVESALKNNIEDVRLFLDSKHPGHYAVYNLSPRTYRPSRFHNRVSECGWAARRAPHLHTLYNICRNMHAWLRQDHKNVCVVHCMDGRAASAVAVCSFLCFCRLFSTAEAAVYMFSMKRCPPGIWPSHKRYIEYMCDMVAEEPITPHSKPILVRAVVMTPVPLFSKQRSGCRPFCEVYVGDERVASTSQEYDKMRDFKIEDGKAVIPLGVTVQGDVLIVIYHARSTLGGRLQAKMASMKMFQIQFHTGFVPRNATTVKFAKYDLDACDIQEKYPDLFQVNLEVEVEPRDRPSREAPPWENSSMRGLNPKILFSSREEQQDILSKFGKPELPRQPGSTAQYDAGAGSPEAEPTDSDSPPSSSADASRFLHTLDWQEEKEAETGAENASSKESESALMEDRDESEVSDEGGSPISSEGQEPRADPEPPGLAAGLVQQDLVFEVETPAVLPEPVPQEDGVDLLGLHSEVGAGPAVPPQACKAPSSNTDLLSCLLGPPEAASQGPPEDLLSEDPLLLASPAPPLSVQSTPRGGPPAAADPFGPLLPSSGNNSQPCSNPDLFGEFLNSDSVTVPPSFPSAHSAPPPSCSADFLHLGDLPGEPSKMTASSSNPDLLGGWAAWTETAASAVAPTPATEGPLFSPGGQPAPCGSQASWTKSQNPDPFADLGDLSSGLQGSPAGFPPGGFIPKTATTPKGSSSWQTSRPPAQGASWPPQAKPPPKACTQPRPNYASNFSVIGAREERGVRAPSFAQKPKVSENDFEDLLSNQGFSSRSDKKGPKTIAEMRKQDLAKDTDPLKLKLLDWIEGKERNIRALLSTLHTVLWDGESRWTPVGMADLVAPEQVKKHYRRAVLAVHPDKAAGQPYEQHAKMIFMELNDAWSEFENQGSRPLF

[23] = molecular target: T3, Serine/threonine-protein kinase 17A (Homo sapiens); experiment: Inhibition of human N-terminal His-tagged/ TEV cleavage fused DRAK1 (39 to 369 residues) expressed in Escherichia coli assessed as gibbs free energy change by isothermal titration calorimetry
T98G [24] = experiment: Antiproliferative activity against human T98G cells assessed as reduction in cell viability measured after 1 to 7 days by resazurin dye based fluorimetric analysis; type: functional
[25] = molecular target: AP2-associated protein kinase 1 (Homo sapiens) (UniProt Q2M2I8); experiment: Binding affinity to AAK1 (unknown origin) assessed as change in melting temperature at 10 uM by SYPRO orange dye based DSF assay
AP2-associated protein kinase 1 (Homo sapiens), sequence (Q2M2I8 whole entry, looked up): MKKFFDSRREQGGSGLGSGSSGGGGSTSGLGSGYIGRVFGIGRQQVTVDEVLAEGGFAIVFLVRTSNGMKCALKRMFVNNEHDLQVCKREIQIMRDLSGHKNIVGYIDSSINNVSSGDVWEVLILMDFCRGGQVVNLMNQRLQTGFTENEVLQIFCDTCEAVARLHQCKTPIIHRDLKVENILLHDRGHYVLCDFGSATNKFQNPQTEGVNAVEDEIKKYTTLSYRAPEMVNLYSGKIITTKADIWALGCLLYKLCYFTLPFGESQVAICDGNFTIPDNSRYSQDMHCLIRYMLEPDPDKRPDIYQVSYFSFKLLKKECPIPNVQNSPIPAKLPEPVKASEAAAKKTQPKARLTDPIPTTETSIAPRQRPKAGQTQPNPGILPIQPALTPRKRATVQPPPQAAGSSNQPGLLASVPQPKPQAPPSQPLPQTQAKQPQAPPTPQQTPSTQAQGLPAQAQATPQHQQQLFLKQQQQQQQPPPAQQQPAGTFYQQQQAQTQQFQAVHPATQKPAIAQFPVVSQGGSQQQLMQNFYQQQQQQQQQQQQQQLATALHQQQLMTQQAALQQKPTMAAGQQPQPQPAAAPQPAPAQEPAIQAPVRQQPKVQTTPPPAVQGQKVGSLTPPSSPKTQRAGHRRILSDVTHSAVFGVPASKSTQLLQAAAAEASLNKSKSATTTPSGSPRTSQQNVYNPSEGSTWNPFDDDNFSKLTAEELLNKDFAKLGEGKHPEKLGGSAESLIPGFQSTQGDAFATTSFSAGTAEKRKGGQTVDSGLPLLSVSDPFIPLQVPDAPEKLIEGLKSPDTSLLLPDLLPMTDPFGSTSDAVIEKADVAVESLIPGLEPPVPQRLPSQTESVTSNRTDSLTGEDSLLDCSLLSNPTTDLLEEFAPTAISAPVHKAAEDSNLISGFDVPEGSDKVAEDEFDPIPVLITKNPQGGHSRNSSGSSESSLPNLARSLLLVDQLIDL

LN-229 = experiment: Antiproliferative activity against human LN-229 cells assessed as reduction in cell viability after 1 to 7 days by resazurin dye based fluorimetric analysis; type: functional
LN-18 = experiment: Antiproliferative activity against human LN-18 cells assessed as reduction in cell viability after 1 to 7 days by resazurin dye based fluorimetric analysis; type: functional
HEK-293T [26] = experiment: Cytotoxicity against human HEK293T cells at 1 uM incubated for 36 hrs; type: toxicity, cell-based
HEK-293T [27] = experiment: Induction of morphological changes in human HEK293T cells assessed as mitochondrial damage at 1 to 10 uM incubated for 18 hrs by confocal fluorescence microscopic analysis; type: toxicity, cell-based; conditions: dose 1-10 µM
[28] = molecular target: T2, Casein kinase II subunit alpha; experiment: Inhibition of CK2alpha1(unknown origin) transfected in HEK293T cells using NanoBRET NanoGlo as substrate incubated for 2 hrs by NanoBRET assay; type: cell-based
Target sequence in this assay (P68400 whole entry, the tested form may be a part): as the sequence (P68400 whole entry, looked up, the tested form may be a part) above

[29] = Cytotoxicity against human HEK293T cells assessed as increase in total apoptotic cells incubated for 36 hrs by Annexin V staining based method; type: toxicity, cell-based, HEK-293T
T98G [30] = experiment: Induction of morphological changes in human T98G cells assessed as change in cell shape at 12.5 uM incubated for 5 days by microscopy analysis; type: functional, cell-based; conditions: time 5.0 day
HEK-293T [31] = experiment: Induction of morphological changes in human HEK293T cells assessed as microtubule damage at 1 to 10 uM incubated for 18 hrs by confocal fluorescence microscopic analysis; type: toxicity, cell-based; conditions: dose 1-10 µM
D-247MG = experiment: Antiproliferative activity against human D-247MG cells assessed as reduction in cell viability after 1 to 7 days by resazurin dye based fluorimetric analysis; type: functional
[32] = molecular target: T2, Casein kinase II subunit alpha; experiment: Inhibition of human CK2alpha1 using RRRDDDSDDD peptide as substrate in presence of [gamma-33P]ATP by radiometric based scintillation proximity assay
Target sequence in this assay (P68400 whole entry, the tested form may be a part): as the sequence (P68400 whole entry, looked up, the tested form may be a part) above

CC(NC(=O)c1ccc2cc1OCCOCCNc1ccn3ncc-2c3n1)c1ccccc1 (stereo unspecified)
IC50 [1]: 0.071 µM | ΔTm [2]: -0.9 °C | IC50 [3]: 0.031 µM | ΔTm [4]: 12.1 °C | ΔTm [5]: 1.9 °C

CC(C)(C)NC(=O)c1ccc2cc1OCCOCCNc1ccn3ncc-2c3n1
deltaH [6]: -30.9 kJ/mol | IC50 [7]: 39 µM | IC50 [8]: 8.4 µM | IC50 [9]: 8 µM | Activity (HEK-293T [10]): Non-Toxic | Activity [11]: Non-Toxic | Activity (HEK-293T [12]): Toxic | Activity [13]: Non-Toxic | ΔTm [14]: > 5 °C | Kd [15]: 0.021 µM | deltaS [16]: 11.1 cal/mol.K | Activity [17]: Toxic | Activity (U2OS): Active | EC50 at 36 h [18]: > 10 µM | IC50 [1]: 0.182 µM | ΔTm [2]: 0.8 °C | IC50 [3]: 0.049 µM | Activity [19]: Non-Toxic | ΔTm [4]: 11.3 °C | IC50 [20]: 0.38 µM | Activity (HEK-293T [21]): Toxic | IC50 [22]: 24 µM | deltaG [23]: -44.4 kJ/mol | EC50 (T98G [24]): 10.4 µM | ΔTm [25]: > 5 °C | EC50 (LN-229): 9.2 µM | EC50 (LN-18): 11.2 µM | Activity (HEK-293T [26]): Non-Toxic | Activity (HEK-293T [27]): Non-Toxic | IC50 [28]: 34 µM | EC50 at 36 h [29]: > 10 µM | Activity (T98G [30]): Active | Activity (HEK-293T [31]): Non-Toxic | EC50 (D-247MG): 2.75 µM | IC50 [32]: 0.95 µM | ΔTm [5]: 2.3 °C
